Results taken from US5843936A, “Topical administration of azaspiranes to prevent or treat skin conditions associated with hyperproliferation of keratinocytes” (priority 1996, dated 1998).
Structures can show the parent of a compound that is named as a salt.

What was measured:
[1] = system: Human foreskin keratinocytes; assay: Mitotic activity of epidermal keratinocytes: inhibition of 3H-TdR incorporation into DNA; assay type: cell-based
Protocol: The mitotic activity of epidermal keratinocytes is one of the most obvious histological features of the psoriatic lesion. Many cytotoxic drugs used to treat the disease are believed to function by direct inhibition of keratinocyte replication.
Human foreskin keratinocytes were cultured in KGM. When the dishes were approximately 50% covered by cells, SG was added to give final concentrations of 5×10^-5 to 5×10^-9 M. After 3 days, the cells were pulsed with ^3 H-TdR for 4 hours, and incorporation into DNA assayed by conventional means. The inhibition of incorporation in 2 experiments was as follows: […]

[2] = system: human skin microvascular endothelial cells; assay: Effect on morphology and growth of endothelial cell cultures; assay type: cell-based
Protocol: Skin endothelial cells in psoriasis are intimately involved in initiating the inflammatory response. Agents which affect both the binding of T lymphocytes and the hyperproliferation of endothelial cells would be expected to have a major effect in controlling the skin lesions.
In this study, human skin microvascular endothelial cells were isolated both from foreskins removed at circumcision and from skin obtained following a facial cosmetic correction. The endothelial cells were grown in a modified Iscove's medium, and while in the growth phase, the effect of varying concentrations of spirogermanium was studied on both the morphology and the growth of the endothelial cell cultures. Final concentrations of spirogermanium in the growth medium were 1,000, 500, 100, 50, 10, 1.0 and 0.125 μg/ml.

[3] = In vivo evaluation of efficacy in treating psoriasis; settings: moderate to severe psoriasis; documented (cited) procedures
Protocol: Compounds encompassed by structural formula (I) are evaluated in vivo for their efficacy in treating psoriasis. The methods of the following references are used in the evaluation: Berardesca et al., "Non-invasive Evaluation of Topical Calcipotriol versus Clobetasol in the Treatment of Psoriasis," Acta Derm Venereol (Stokh) 74:302-304 (1994); Elias et al., "A Controlled Trial of Topical Propylthiouracil in the Treatment of Patients with Psoriasis," J. Amer. Acad. Dermatol. 31(3):455-458; and Highton et al., "Calcipotriene Ointment 0.005% for Psoriasis: A Safety and Efficacy Study," J. Amer. Acad. Dermatol. 32(1):67-72 (1995).

[4] = hydrochloride salt, cited from earlier work

| SMILES | inhibition of DNA synthesis in keratinocytes (in words) [1] | cell death ([2]; 0.125 μg/ml, after 1 week) | endothelial cell morphology ([2]; 10 μg/ml) | endothelial cell morphology ([2]; highest concentrations) | efficacy in treating psoriasis [3] | solubility in 95% ethanol ([4]; 95% ethanol) | solubility in water ([4]; water) |
| --- | --- | --- | --- | --- | --- | --- | --- |
| C[CH2][Ge]1([CH2]C)[CH2]CC2(CCN(CCCN(C)C)C2)C[CH2]1 [SG] | very potent inhibitor of DNA synthesis in keratinocytes | cell death was observed after 1 week | vacuolization was observed before desquamation and ultimate cell death | immediately rounded up and detached from the dish surface | effective for treating moderate to severe psoriasis | – | – |
| C[CH2][Ge]1([CH2]C)[CH2]CC2(CCN(CCCN(C)C)C2)C[CH2]1 [spirogermanium HCl] | – | – | – | – | – | freely soluble | freely soluble |
